Assays:
[1] = system: VII68 hybridoma; experiment: Plate-bound mCD1d fusion protein hybridoma stimulation assay (IL-2 ELISA); type: cell-based, mouse; settings: VII68 diverse TCR hybridoma; plate-bound mCD1d-IgGFc2a fusion protein preincubated with lipid antigen
In short: (§1)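 IL-2 (pg/ml) by sandwich ELISA, regressed on a murine IL-2 standard curve, reports stimulation of hybridomas (1×10^5/well, 16-20 hr, 37° C) on immobilized mCD1d fusion protein pre-pulsed with lipid, 40:1 molar ratio by default, 24-48 hr at 37° C.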

[2] = system: 24.7.C hybridoma; experiment: as above; type: cell-based, mouse; settings: 24 7.C NKT hybridoma; plate-bound mCD1d-IgGFc2a fusion protein preincubated with lipid antigen
In short: as §1

[3] = system: Vβ/9 hybridoma; experiment: as above; type: cell-based, mouse; settings: Vβ/9 NKT hybridoma; plate-bound mCD1d-IgGFc2a fusion protein preincubated with lipid antigen
In short: as §1

[4] = system: KT/23 hybridoma; experiment: as above; type: cell-based, mouse; settings: KT/23 NKT hybridoma; plate-bound mCD1d-IgGFc2a fusion protein preincubated with lipid antigen
In short: as §1

[5] = system: KT/7 hybridoma; experiment: as above; type: cell-based, mouse; settings: KT/7 NKT hybridoma; plate-bound mCD1d-IgGFc2a fusion protein preincubated with lipid antigen
In short: as §1

[6] = system: XV104 hybridoma; experiment: as above; type: cell-based, mouse; settings: XV104 diverse TCR hybridoma; plate-bound mCD1d-IgGFc2a fusion protein preincubated with lipid antigen
In short: as §1

[7] = system: 24.9.E hybridoma; experiment: as above; type: cell-based, mouse; settings: 24.9 E NKT hybridoma; plate-bound mCD1d-IgGFc2a fusion protein preincubated with lipid antigen
In short: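 Protein A plates loaded with 400-600 ng/well mCD1d fusion protein plus lipid antigen (default 40:1 molar ratio), 24-48 hr at 37 °C, washed; hybridomas added at 1×10^5 cells/well for 16-20 hr. Supernatant IL-2 quantified by sandwich ELISA against murine IL-2 standard curve.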

[8] = system: 14S.15.A hybridoma; experiment: as above; type: cell-based, mouse; settings: 14S.15.A diverse TCR hybridoma; plate-bound mCD1d-IgGFc2a fusion protein preincubated with lipid antigen
In short: as §1

[9] = system: KT/12 hybridoma; experiment: as above; type: cell-based, mouse; settings: KT/12 NKT hybridoma; plate-bound mCD1d-IgGFc2a fusion protein preincubated with lipid antigen
In short: as §1

[10] = system: 14S.7.N hybridoma; experiment: as above; type: cell-based, mouse; settings: 14S.7.N diverse TCR hybridoma; plate-bound mCD1d-IgGFc2a fusion protein preincubated with lipid antigen
In short: as §1

[11] = system: DN32D3 hybridoma; experiment: as above; type: cell-based, mouse; settings: DN32D3 NKT hybridoma; plate-bound mCD1d-IgGFc2a fusion protein preincubated with lipid antigen
In short: as §1

[12] = system: KT/22 hybridoma; experiment: as above; type: cell-based, mouse; settings: KT/22 NKT hybridoma; plate-bound mCD1d-IgGFc2a fusion protein preincubated with lipid antigen
In short: as §1

[13] = system: 14S.10.C hybridoma; experiment: as above; type: cell-based, mouse; settings: 14S.10 C diverse TCR hybridoma; plate-bound mCD1d-IgGFc2a fusion protein preincubated with lipid antigen
In short: as §1

[14] = system: 14S.6.A hybridoma; experiment: as above; type: cell-based, mouse; settings: 14S.6.A diverse TCR hybridoma; plate-bound mCD1d-IgGFc2a fusion protein preincubated with lipid antigen
In short: as §1

[15] = system: VIII24 hybridoma; experiment: as above; type: cell-based, mouse; settings: VIII24 diverse TCR hybridoma; plate-bound mCD1d-IgGFc2a fusion protein preincubated with lipid antigen
In short: as §1

[16] = system: XV19 hybridoma; experiment: as above; type: cell-based, mouse; settings: XV19 diverse TCR hybridoma; plate-bound mCD1d-IgGFc2a fusion protein preincubated with lipid antigen
In short: as §1

[17] = system: 24.8.A hybridoma; experiment: as above; type: cell-based, mouse; settings: for IL-2 secretion: 24.8 A NKT hybridoma, plate-bound mCD1d-IgGFc2a fusion protein preincubated with lipid antigen
In short: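 Protein A plates were loaded with 400-600 ng/well mCD1d fusion protein, then given lipid antigen (40:1 molar ratio to fusion protein unless specified) in PBS pH 7.2 for 24-48 h at 37 °C. After washing, 1×10^5 hybridoma cells/well were added for 16-20 h at 37 °C. Secreted IL-2 measured by sandwich ELISA against a murine IL-2 standard curve.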

[18] = system: human CD1d-restricted T cell clones; experiment: Flow cytometric staining with lipid treated multimerized CD1d-Fc aggregates; type: cell-based; settings: flow cytometry; human CD1d-Fc/Alexa 488 protein A aggregate, 40:1 lipid to fusion protein, compared with DMSO alone
Description: To facilitate binding to CD1 specific T cells for detection by flow cytometry, a highly multimerized form of the CD1d fusion protein was formed using fluorescently labeled protein A molecules. Protein A molecules spontaneously associate in solution at neutral pH with immunoglobulin Fc regions, forming complexes containing four Fc molecules and two protein A molecules (4+2 complexes, reference 2). The human CD1d-Fc fusion protein was incubated with Alexa 488 dye labeled protein A, and the 4+2 complexes purified by size exclusion chromatography on a Pharmacia Superose 6 column using PBS pH 7.2 as a running buffer. The purified 4+2 aggregates were concentrated to 100 μg/ml with ovalbumin as a carrier protein. The CD1d-Fc aggregate was then pre-incubated for 24 to 48 hours at 37° C. with antigenic glycolipids dissolved in DMSO at a 40:1 molar ratio of lipid to fusion protein, or with an equivalent volume of DMSO alone as a negative control. The T cell staining was performed at room temperature or 4° C. for 20 min, at a concentration of 40 μg/ml of the lipid or control treated CD1d-Fc aggregate.
To facilitate binding to CD1 specific T cells for detection by flow cytometry, a highly multimerized form of the CD1d fusion protein is formed using fluorescently labeled protein A molecules. Protein A molecules spontaneously associate in solution at neutral pH with immunoglobulin Fc regions, forming complexes containing four Fc molecules and two protein A molecules (4+2 complexes, Langone, J.J. et al, Molec. and Cell. Biochem, 65(2):159-70 (1985)). The human CD1d-Fc fusion protein was incubated with Alexa 488-dye labeled protein A, and the 4+2 complexes purified by size exclusion chromatography on a Phannacia Superose 6 column using PBS pH 7.2 as a running buffer. The purified 4+2 aggregates are concentrated to 100 μg/ml with ovalbumin as a carrier protein. The CD1d-Fc aggregate is then pre-incubated for 24 to 48 hours at 37° C. with antigenic glycolipids dissolved in DMSO at a 40:1 molar ratio of lipid to fusion protein, or with an equivalent volume of DMSO alone as a negative control. The T cell staining is performed at room temperature or 4° C. for 20 min, at a concentration of 40 μg/ml of the lipid or control treated CD1d-Fc aggregate.
Flow cytometric analysis of a CD1d-restricted T cell clone stained with the multimerized CD1d-Fc fusion protein (abbreviated as “hd(8)-fl”) was performed as follows. Staining with CD1d-Fc treated with lipid antigens dissolved in DMSO was compared with CD1d-Fc treated with DMSO alone as a negative control. The specific lipid antigen used were: aGalCer is α-galactosyl ceramide (KRN7000); aGlcCer is α-glucosyl ceramide; aManCer is α-mannosyl ceramide; bGalCer is β-galactosyl ceramide; Cer is ceramide (acylphytosphingolipid).
Flow cytometric analysis of a series of human T cell clones stained with the multimerized CD1d-Fc fusion protein, treated with α-GalCer or DMSO alone also was performed, including staining of two different CD1d-restricted (“NKT”) T cell clones DN2.B9 and DN1.10B3. Four other T cell clones that are not CD1d-restricted also were stained.

Substance	IL-2 secretion [1]	IL-2 secretion [2]	IL-2 secretion [3]	IL-2 secretion [4]	IL-2 secretion [5]	IL-2 secretion [6]	IL-2 secretion [7]	IL-2 secretion [8]	IL-2 secretion [9]	IL-2 secretion [10]	IL-2 secretion [11]	IL-2 secretion [12]	IL-2 secretion [13]	IL-2 secretion [14]	IL-2 secretion [15]	IL-2 secretion [16]	IL-2 response to mCD1d fusion protein pre-treated with purified or synthetic lipid ([17]; 24.8.A hybridoma, compared to untreated or buffer treated fusion protein)	IL-2 secretion [17]	staining of CD1d-restricted T cell clones by lipid treated CD1d-Fc aggregate [18]
phosphatidylserine [PS]	0 (A “0” indicates a mean of less than 50 pg/ml IL-2 was secreted)	0 (A “0” indicates a mean of less than 50 pg/ml IL-2 was secreted)	0 (A “0” indicates a mean of less than 50 pg/ml IL-2 was secreted)	0 (A “0” indicates a mean of less than 50 pg/ml IL-2 was secreted)	0 (A “0” indicates a mean of less than 50 pg/ml IL-2 was secreted)	0 (A “0” indicates a mean of less than 50 pg/ml IL-2 was secreted)	0 (A “0” indicates a mean of less than 50 pg/ml IL-2 was secreted)	0 (A “0” indicates a mean of less than 50 pg/ml IL-2 was secreted)	0 (A “0” indicates a mean of less than 50 pg/ml IL-2 was secreted)	0 (A “0” indicates a mean of less than 50 pg/ml IL-2 was secreted)	0 (A “0” indicates a mean of less than 50 pg/ml IL-2 was secreted)	0 (A “0” indicates a mean of less than 50 pg/ml IL-2 was secreted)	0 (A “0” indicates a mean of less than 50 pg/ml IL-2 was secreted)	0 (A “0” indicates a mean of less than 50 pg/ml IL-2 was secreted)	0 (A “0” indicates a mean of less than 50 pg/ml IL-2 was secreted)	0 (A “0” indicates a mean of less than 50 pg/ml IL-2 was secreted)	did not reproducibly significantly enhance reactivity	+ (“+” indicates 50-250 pg/ml)	
sphingomyelin	0 (A “0” indicates a mean of less than 50 pg/ml IL-2 was secreted)	0 (A “0” indicates a mean of less than 50 pg/ml IL-2 was secreted)	0 (A “0” indicates a mean of less than 50 pg/ml IL-2 was secreted)	0 (A “0” indicates a mean of less than 50 pg/ml IL-2 was secreted)	0 (A “0” indicates a mean of less than 50 pg/ml IL-2 was secreted)	0 (A “0” indicates a mean of less than 50 pg/ml IL-2 was secreted)	0 (A “0” indicates a mean of less than 50 pg/ml IL-2 was secreted)	+ (“+” indicates 50-250 pg/ml)	0 (A “0” indicates a mean of less than 50 pg/ml IL-2 was secreted)	0 (A “0” indicates a mean of less than 50 pg/ml IL-2 was secreted)	0 (A “0” indicates a mean of less than 50 pg/ml IL-2 was secreted)	0 (A “0” indicates a mean of less than 50 pg/ml IL-2 was secreted)	0 (A “0” indicates a mean of less than 50 pg/ml IL-2 was secreted)	0 (A “0” indicates a mean of less than 50 pg/ml IL-2 was secreted)	0 (A “0” indicates a mean of less than 50 pg/ml IL-2 was secreted)	0 (A “0” indicates a mean of less than 50 pg/ml IL-2 was secreted)		+ (“+” indicates 50-250 pg/ml)	
α-glucosyl ceramide [α-GlcCer]																			positive staining
α-mannosyl ceramide [α-ManCer]																			did not stain above background levels

— patent US20020071842A1, “Soluble CD1 compositions and uses thereof” (priority 2000, published 2002)
